Values of other authors, collected in US11318114B2, “Water dispersible mini-tablets comprising Enalapril for treatment of hypertension in a pediatric population and method of preparation thereof” (PHARMATHEN S.A., priority 2014, dated 2022).
Converted amounts (≈) assume the structure as drawn. Counter-ions that a name gives are not always drawn. Like-named read-outs stand apart in the source and are kept apart here.

SMILES | Solubility (alcohol) | Solubility (dimethylformamide) | Solubility (methanol) | Solubility (nonpolar organic solvents) | Solubility (semi polar organic solvents) | Solubility (water) | Solubility in water (water)
CCOC(=O)[C@H](CCc1ccccc1)N[C@@H](C)C(=O)N1CCC[C@H]1C(=O)O [Enalapril maleate] | soluble | freely soluble | freely soluble | practically insoluble | slightly soluble | sparingly soluble | –
CCOC(=O)[C@H](CCc1ccccc1)N[C@@H](C)C(=O)N1CCC[C@H]1C(=O)O [Enalapril, (2S)-1-{[92S0-1-ethoxy-1-oxo-4phenylbutan-2-yl]amino}pyrrolidine-2carboxylic acid] | – | – | – | – | – | – | 25 mg/mL (≈ 66.4 mM)
